The values below come from patent US20070054868A1, “Synergistic polyphenol compounds, compositions thereof, and uses thereof” (The Trustees of Columbia University in the City of New York, priority 2005, published 2007).

Broadly, the IC50 is the midpoint of a concentration-inhibition curve.

The subject of one series is SW837. Description: Growth inhibition IC50 against colorectal cell lines. Format: cell-based, human. The text has this: Cell lines and cell culture. The Caco2, HCT116, HT29, SW480, and SW837 human colorectal cancer cell lines and the FHC normal human fetal colon cell line were obtained from American Type Culture Collection (Manassas, Va.). All cell lines were maintained in DF10 medium containing DMEM (Invitrogen, San Diego, Calif.) supplemented with 10% fetal bovine serum (Invitrogen). The FHC cell line was originally established from the colon of a human fetus at 13 weeks of gestation and has an epithelial morphology. Cells were cultured in an incubator with humidified air at 37° C. with 5% CO2. As an untreated solvent control, cells were treated with DMSO (Sigma Chemical Co., St. Louis, Mo.) at a final concentration of <0.1%. […] Cells to be tested against were plated onto 96-well plates (3×10^3 cells/well) and twenty-four hours later, the cells were treated with an illustrative Synergistic Polyphenol Composition, or one or more illustrative Synergistic Polyphenol Compounds. Neither the medium nor the test compounds were changed during this time period. The assay was done in triplicate. […] The medium and test compounds were not changed during this time period. As a control, the cells were treated with 0.1% DMSO. […] The numbers of cells in replica plates were then determined using a Coulter Counter (Beckman Coulter Co., Fullerton, Calif.) as described in Shimizu et al., Clin. Cancer Res. 2004: 10:1130-40.

The subject of a further series is Bcl-xL. Description: Western blot analysis in SW837 cells. Format: cell-based, human. The note with it: 1.0 μg/mL, 96 hours. The text has this: (§1) Total cellular protein was extracted and equivalent amounts of protein can be determined by western blot analysis using the methods described in Suzui, et al., Cancer Res., 62:3997-4006 (2002). The primary antibodies for several proteins are described in Masuda et al., Clin Cancer Res., 7:4220-4229 (2001); Masuda et al., Clin Cancer Res., 9:3486-3491 (2003); and Shimizu et al., Clin Cancer Res., 11:2735-2746 (2005). The primary antibodies for HER3 (2F12) and COX-2 (PG27) were purchased from Upstate Cell Signaling Solutions (Charlottesville, Va.) and Oxford Biochemical Research (Oxford, Mich.), respectively. To examine the levels of expression of the phosphorylated (i.e. activated) form of the HER3 protein (p-HER3), cellular lysates (1 mg/mL) were incubated with 4 μg anti-HER3 antibody overnight at 4° C. with slow agitation, and immune complexes were then precipitated by adding protein A/G agarose (sc-2003, Santa Cruz Biotechnology, Santa Cruz, Calif.). After incubating for 2 hours at 4° C., the beads were washed with lysis buffer, and bound proteins were eluted into the sample buffer and subjected to western blot analysis, as described above. The p-HER3 protein was then detected by using an anti-phospho-tyrosine antibody (PY-20-HRP, BD Transduction Laboratories, San Diego, Calif.). An antibody to actin was used as a loading control. Each membrane was developed using an ECL-enhanced chemiluminescence system (Amersham Biosciences, Piscataway, N.J.).
(In general: In western blotting, separated proteins are transferred to a membrane and probed.)

A further series relates to COX-2 protein. Description: Western blot analysis in SW837 cells. To be noted: for cellular level of the COX-2 protein: 20 μg/mL. Format: cell-based, human.
Excerpt: as §1

Another series deals with p-Akt. In words: Western blot analysis in SW837 cells. Format: cell-based, human. To be noted: 20 μg/mL, at 6 hours.
Excerpt: as §1

For another series, the system named is p-EGFR. Description: Western blot analysis in SW837 cells. Format: cell-based, human.
Excerpt: as §1

The subject of another series is p-ERK. In words: Western blot analysis in SW837 cells. Format: cell-based, human. The note with it: 20 μg/mL, at 12 hours.
Excerpt: as §1

For another series, the system named is p-HER2. Description: Western blot analysis in SW837 cells. Format: cell-based, human.
Excerpt: as §1

Series [1] concerns SW837 human colon cancer cells. In words: Cell proliferation assay (Coulter Counter). Format: cell-based. To be noted: 1.0 μg/mL, 96 hours. As for the experimental part: Thirty thousand SW837 human colon cancer cells were seeded into multiple 35-mm diameter dishes in DFI0 medium, and 24 hours later the cells were treated with EGCG (0, 1.0, or 20 μg/mL) for 96 hours, during which time, the medium and drugs were not changed. As a control, the cells were treated with 0.1% DMSO. Every 24 hours, and for a total time of 96 hours, replicate plates of cells were washed with PBS and the attached cells were collected by trypsinization. The numbers of cells in replica plates were then counted using a Coulter Counter (Beckman Coulter Co., Fullerton, Calif.) as described in Shimizu et al., Clin. Cancer Res., 10:1130-1140 (2004).

The test system of a further series is IGF-1 protein. In words: Western blot analysis for IGF in SW837 cells. Format: cell-based, human. The text has this:
(§2) Total cellular protein was extracted and equivalent amounts of protein were examined by western blot analysis, as described above in Example 6. Cell lysates were separated by SDS-PAGE using 7.5 to 15% polyacrylamide gels and transferred onto Immobilon-P transfer membranes (Millipore Co., Bedford, Mass.). The primary antibodies for IGF-1R[…](#3022) and p-IGF-1R (#3021) were purchased from Cell Signaling Technology (Beverly, Mass.). The primary antibodies for IGF-1R[…](sc-713) and IGFBP-3 (sc-6003) were purchased from Santa Cruz Biotechnology (Santa Cruz, Calif.). The primary antibodies for IGF-1 (clone Sm1.2) and actin (A2066) were purchased from Upstate Cell Signaling Solutions (Charlottesville, Va.) and Sigma Chemical Co. (St Louis, Mo.), respectively. An antibody to actin was used as a loading control. Anti-mouse IgG (Amersham Pharmacia Biosciences, Piscataway, N.J.), anti-rabbit IgG (Amersham Pharmacia Biosciences), or anti-goat IgG (Santa Cruz Biotechnology) antibodies were used as the secondary antibodies. Each membrane was developed using an ECL-enhanced chemiluminescence system (Amersham Biosciences).

The test system of a further series is IGFBP-3 protein. Description: Western blot analysis for IGF in SW837 cells. Format: cell-based, human.
Excerpt: as §2

In the next series the test system is p-IGF-1R. In words: Western blot analysis for IGF in SW837 cells. The note with it: 20 μg/mL, within 6 hours. Format: cell-based, human.
Excerpt: as §2

The subject of the next series is IGF-1R proteins. Description: Western blot analysis for IGF in SW837 cells, total receptor. Format: cell-based, human. To be noted: 20 μg/mL, during the time course.
Excerpt: as §2

The conditions of series [2]: obtained in a clinical study; value said to be in the range of the peak; cited from earlier work.

For the substance (−)-epigallocatechin gallate, the IC50 in the series with SW837 came out at 19.6 µg/mL. The “IC50 concentration determined by MTT assays” value with SW837 amounted to 20 µg/mL. Moreover, the “levels of the Bcl-xL protein” value in the series on Bcl-xL is “decrease”. Besides, the “levels of the COX-2 protein” value in the series with COX-2 protein (1.0 μg/mL, 96 hours) is listed as “decrease”. Moreover, the “cellular level of the COX-2 protein” value with COX-2 protein (after 12 to 24 hours) is listed as “marked decrease”; in the series on COX-2 protein (at 48 hours) it was “almost undetectable”. Moreover, the “levels of the p-Akt protein” value with p-Akt is “marked decreases”. In addition, the “levels of the p-EGFR protein” value in the series on p-EGFR (1.0 μg/mL, 96 hours) is recorded as “decrease”; with p-EGFR (20 μg/mL, within 6 hours) it was “marked decrease”. Besides, the “levels of the p-ERK protein” value in the series with p-ERK is “marked decreases”. Also, the “levels of the p-HER2 protein” value was “decrease” in the series on p-HER2 (1.0 μg/mL, 96 hours) and “marked decrease” in the series on p-HER2 (20 μg/mL, within 6 hours). Also, the inhibition of growth result in [1] is reported as “about 55%”. In addition, the “levels of the IGF-1 protein” value in the series on IGF-1 protein (1.0 μg/mL, 96 hours) is given as “decrease”; with IGF-1 protein (20 μg/mL, at 12 hours), “moderate decrease”; in the series with IGF-1 protein (20 μg/mL, at 24 hours), “marked decrease”. Moreover, the “level of the IGFBP-3 protein” value in the series with IGFBP-3 protein (1.0 μg/mL, 96 hours) was “increase”; in the series on IGFBP-3 protein (20 μg/mL, at 6 hours, persisted for at least 48 hours), “marked increase”. The “levels of the p-IGF-1R protein” value in the series with p-IGF-1R is reported as “marked decrease”. Also, the “levels of the IGF-1R proteins (total)” value in the series on IGF-1R proteins is given as “no significant changes”. For the same substance, the peak plasma concentration in series [2] was approximately 1.0 µg/mL.
